Measured values published in the supplement of paper PMC11208160.

Assay: recombinant UMI read abundance after kanamycin selection (control-corrected) (log10(CPM+1)); higher = more efficient recombination; extreme values may be limits of the assay; sequences stand for … in AGTGCAGAGAAAATCGGCCAGTTTTCTCTGCCTGCAGTCCGCATGCCGTGGGACCCCTTGGGTTCTAACCTGTTGCCTAGATTTATGCAGCGGACTGCCTTTCTCCCAAAGTGATAAACCGG…AGGTTGGTTTCACT; site = the 11-nt donor
Summary of the method: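 Two replicates each of selected and unselected plating were used in this pooled Escherichia coli screen of donor and donor-binding-loop pairs for the IS621 bridge recombinase. Selection was with IPTG (0.07 mM) and kanamycin. Counts of recombinant UMIs, amplified across the donor–target junction, were converted to CPM, averaged, scaled by control-derived factors and reported as log10(CPM+1).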
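Further: IS621 bridge recombinase in Escherichia coli cells against a fixed T5 target plasmid.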

Row | Sequence | recombinant UMI read abundance (log10)
1 | ACTAGTACATGGACCGGTTTTCCCGGTAATCCGTATTTGAG (site ACTAGCACTCT) | 0.0245
2 | ACTAGTACATGGACCGGTTTTCCCGGTAATCCGTATTTGAG (site ACTAGGACTCT) | 0.0174
3 | ACTAGTACATGGACCGGTTTTCCCGGTAATCCGTATTTGAG (site ACTAGTACTCT) | 1.35
4 | ACTAGTGCATGGACCGGTTTTCCCGGTAATCCGTATTTGGG (site ACTAGTGCTAC) | 0.0186
5 | ACTAGTGCATGGACCGGTTTTCCCGGTAATCCGTATTTGGG (site ACTAGTGCTCC) | 0.376
6 | ACTAGTGCATGGACCGGTTTTCCCGGTAATCCGTATTTGGG (site ACTAGTGCTGC) | 0
7 | ACTAGTGCATGGACCGGTTTTCCCGGTAATCCGTATTTGGG (site ACTAGTGCTTC) | 0.021
8 | ACTAGTGCATGGACCGGTTTTCCCGGTAATCCGTATTTGTT (site ACTAGTGCTAA) | 1.35
9 | ACTAGTGCATGGACCGGTTTTCCCGGTAATCCGTATTTGTT (site ACTAGTGCTAC) | 0.00478
10 | ACTAGTGCATGGACCGGTTTTCCCGGTAATCCGTATTTGTT (site ACTAGTGCTAG) | 1.16
11 | ACTAGTGCATGGACCGGTTTTCCCGGTAATCCGTATTTGTT (site ACTAGTGCTAT) | 0.242
12 | ACTATAACATGGACCGGTTTTCCCGGTAATCCGTATTTGAG (site ACTAAAACTCT) | 0.00383
13 | ACTATAACATGGACCGGTTTTCCCGGTAATCCGTATTTGAG (site ACTACAACTCT) | 0.348
14 | ACTATAACATGGACCGGTTTTCCCGGTAATCCGTATTTGAG (site ACTAGAACTCT) | 0.395
15 | ACTATAACATGGACCGGTTTTCCCGGTAATCCGTATTTGAG (site ACTATAACTCT) | 1.72
16 | ACTATACCATGGACCGGTTTTCCCGGTAATCCGTATTTGTA (site ACTATACCTTA) | 0.0158
17 | ACTATTGCATGGACCGGTTTTCCCGGTAATCCGTATTTGGT (site ACTAATGCTAC) | 0.108
18 | ACTATTGCATGGACCGGTTTTCCCGGTAATCCGTATTTGGT (site ACTACTGCTAC) | 0.0131
19 | ACTATTGCATGGACCGGTTTTCCCGGTAATCCGTATTTGGT (site ACTAGTGCTAC) | 0.023
20 | ACTATTGCATGGACCGGTTTTCCCGGTAATCCGTATTTGGT (site ACTATTGCTAC) | 1.91
21 | ACTCAAGCATGGACCGGTTTTCCCGGTAATCCGTATTTGCA (site ACTCAAGCTTG) | 2.26
22 | ACTCAATCATGGACCGGTTTTCCCGGTAATCCGTATTTGAG (site ACTCAATCTCT) | 1.69
23 | ACTCCAACATGGACCGGTTTTCCCGGTAATCCGTATTTGTC (site ACTCCAACTGA) | 1.34
24 | ACTCCAGCATGGACCGGTTTTCCCGGTAATCCGTATTTGAT (site ACTCCAGCTAT) | 2.13
25 | ACTCGCCCATGGACCGGTTTTCCCGGTAATCCGTATTTGTT (site ACTCGCCCTAA) | 1.08

Row | Sequence | recombinant UMI read abundance (log10)
26 | ACTCGTGCATGGACCGGTTTTCCCGGTAATCCGTATTTGGT (site ACTAGTGCTAC) | 0.43
27 | ACTCGTGCATGGACCGGTTTTCCCGGTAATCCGTATTTGGT (site ACTCGTGCTAC) | 1.07
28 | ACTCGTGCATGGACCGGTTTTCCCGGTAATCCGTATTTGGT (site ACTGGTGCTAC) | 0.222
29 | ACTCGTGCATGGACCGGTTTTCCCGGTAATCCGTATTTGGT (site ACTTGTGCTAC) | 0.839
30 | ACTCTCCCATGGACCGGTTTTCCCGGTAATCCGTATTTGAT (site ACTCTCCCTAT) | 0.628
31 | ACTCTCTCATGGACCGGTTTTCCCGGTAATCCGTATTTGCA (site ACTCTCTCTTG) | 3.19
32 | ACTGATGCATGGACCGGTTTTCCCGGTAATCCGTATTTGGC (site ACTGATGCTGC) | 1.81
33 | ACTGCTACATGGACCGGTTTTCCCGGTAATCCGTATTTGAA (site ACTGCTACTTT) | 0.749
34 | ACTGGTGCATGGACCGGTTTTCCCGGTAATCCGTATTTGGT (site ACTAGTGCTAC) | 1
35 | ACTGGTGCATGGACCGGTTTTCCCGGTAATCCGTATTTGGT (site ACTCGTGCTAC) | 0.414
36 | ACTGGTGCATGGACCGGTTTTCCCGGTAATCCGTATTTGGT (site ACTGGTGCTAC) | 1.69
37 | ACTGGTGCATGGACCGGTTTTCCCGGTAATCCGTATTTGGT (site ACTTGTGCTAC) | 0.401
38 | ACTGTAACATGGACCGGTTTTCCCGGTAATCCGTATTTGCT (site AATGTAACTAG) | 0.987
39 | ACTGTAACATGGACCGGTTTTCCCGGTAATCCGTATTTGCT (site ACTGTAACTAG) | 2.23
40 | ACTGTAACATGGACCGGTTTTCCCGGTAATCCGTATTTGCT (site AGTGTAACTAG) | 1.12
41 | ACTGTAACATGGACCGGTTTTCCCGGTAATCCGTATTTGCT (site ATTGTAACTAG) | 1.55
42 | ACTGTGTCATGGACCGGTTTTCCCGGTAATCCGTATTTGCA (site ACAGTATCTTG) | 2.5
43 | ACTGTGTCATGGACCGGTTTTCCCGGTAATCCGTATTTGCA (site ACTGTGTCTTG) | 2.89
44 | ACTTAACCATGGACCGGTTTTCCCGGTAATCCGTATTTGCA (site ACTTAACCTTG) | 0
45 | ACTTAGACATGGACCGGTTTTCCCGGTAATCCGTATTTGGG (site ACATAGACTCC) | 0.0123
46 | ACTTAGACATGGACCGGTTTTCCCGGTAATCCGTATTTGGG (site ACCTAGACTCC) | 0.00452
47 | ACTTAGACATGGACCGGTTTTCCCGGTAATCCGTATTTGGG (site ACGTAGACTCC) | 0.00655
48 | ACTTAGACATGGACCGGTTTTCCCGGTAATCCGTATTTGGG (site ACTTAGACTCC) | 0.0876
49 | ACTTCGTCATGGACCGGTTTTCCCGGTAATCCGTATTTGTG (site ACTTCGTCTCA) | 0.306
50 | ACTTCTACATGGACCGGTTTTCCCGGTAATCCGTATTTGTG (site ACATCTACTCA) | 0.0153

Row | Sequence | recombinant UMI read abundance (log10)
51 | ACTTCTACATGGACCGGTTTTCCCGGTAATCCGTATTTGTG (site ACCTCTACTCA) | 0.00536
52 | ACTTCTACATGGACCGGTTTTCCCGGTAATCCGTATTTGTG (site ACGTCTACTCA) | 0.0444
53 | ACTTCTACATGGACCGGTTTTCCCGGTAATCCGTATTTGTG (site ACTTCTACTCA) | 0.179
54 | ACTTGTGCATGGACCGGTTTTCCCGGTAATCCGTATTTGGT (site ACTAGTGCTAC) | 0.652
55 | ACTTGTGCATGGACCGGTTTTCCCGGTAATCCGTATTTGGT (site ACTCGTGCTAC) | 0.73
56 | ACTTGTGCATGGACCGGTTTTCCCGGTAATCCGTATTTGGT (site ACTGGTGCTAC) | 0.211
57 | ACTTGTGCATGGACCGGTTTTCCCGGTAATCCGTATTTGGT (site ACTTGTGCTAC) | 1.18
58 | ACTTTACCATGGACCGGTTTTCCCGGTAATCCGTATTTGCT (site ACTTTACCTAG) | 0.431
59 | ACTTTATCATGGACCGGTTTTCCCGGTAATCCGTATTTGCA (site ACAGTATCTTG) | 2.35
60 | ACTTTATCATGGACCGGTTTTCCCGGTAATCCGTATTTGCA (site ACTTTATCTTG) | 1.85
61 | AGAAACACATGGACCGGTTTTCCCGGTAATCCGTATTTGTC (site AGAAACACTGA) | 2.8
62 | AGAAAGACATGGACCGGTTTTCCCGGTAATCCGTATTTGCT (site AGAAAGACTAG) | 2.1
63 | AGAAAGACATGGACCGGTTTTCCCGGTAATCCGTATTTGCT (site AGAAAGCCTAG) | 0.934
64 | AGAAAGACATGGACCGGTTTTCCCGGTAATCCGTATTTGCT (site AGAAAGGCTAG) | 1.02
65 | AGAAAGACATGGACCGGTTTTCCCGGTAATCCGTATTTGCT (site AGAAAGTCTAG) | 0.572
66 | AGAAAGGCATGGACCGGTTTTCCCGGTAATCCGTATTTGCA (site AGAAAGGCTAG) | 0
67 | AGAAAGGCATGGACCGGTTTTCCCGGTAATCCGTATTTGCA (site AGAAAGGCTCG) | 0.889
68 | AGAAAGGCATGGACCGGTTTTCCCGGTAATCCGTATTTGCA (site AGAAAGGCTGG) | 0
69 | AGAAAGGCATGGACCGGTTTTCCCGGTAATCCGTATTTGCA (site AGAAAGGCTTG) | 1.9
70 | AGAAATGCATGGACCGGTTTTCCCGGTAATCCGTATTTGCT (site AGAAAAGCTAG) | 1.53
71 | AGAAATGCATGGACCGGTTTTCCCGGTAATCCGTATTTGCT (site AGAAACGCTAG) | 1.8
72 | AGAAATGCATGGACCGGTTTTCCCGGTAATCCGTATTTGCT (site AGAAAGGCTAG) | 0
73 | AGAAATGCATGGACCGGTTTTCCCGGTAATCCGTATTTGCT (site AGAAATGCTAG) | 2.23
74 | AGAAATTCATGGACCGGTTTTCCCGGTAATCCGTATTTGCG (site AGAAATTCTCG) | 1.94
75 | AGAACCGCATGGACCGGTTTTCCCGGTAATCCGTATTTGAC (site AGAACCGCTGT) | 2.35
